Patent publication US12121522B2, “Methods of treating cancer with an mTOR inhibitor” (Revolution Medicines, Inc., priority 2022, dated 2024)

Assays:
[1] = system: TOV21G ovarian cancer CDX; experiment: TOV21G ovarian cancer xenograft; type: in vivo, mouse
Experimental: FIGS. 2A-2D show Antitumor Activity of RMC-5552 in the TOV21G Cell Line-Derived Xenograft Model of Human Ovarian Cancer Following Once-Weekly Administration. Abbreviations: ANOVA=analysis of variance; IP=intraperitoneal; QW=once weekly. […] Each animal represented as a separate bar. Number of animals per group=10, or n=5 in 3 mg/kg dosing arm. Numbers indicate number of regressions at respective doses (defined as >10% reduction in tumor volume from starting volume) in each group. […] FIG. 2D reflects Kaplan-Meier survival analysis of the time for TOV21G tumors to regrow to a tumor volume of 300 mm^3 following treatment cessation. Median time to regrowth in RMC-5552 3 mg/kg arm is 61 days, while 10 mg/kg dose survival time was undefined, extending past 73 days. Dotted horizontal line indicates time to regrowth of 50% of the tumors in a treatment.
(§1) The antitumor activity of RMC-5552 as a single agent against tumors predicted to be dependent on the mTOR pathway and/or bearing specific PI3K/mTOR pathway-activating mutations (i.e., PIK3CA^mut, phosphatase and tensin homolog [PTEN^LOF], or co-mutation of both and tuberous sclerosis complex [TSC^LOF]) was evaluated in selected CDX and/or PDX models
Table 1. RMC-5552 was administered IP once weekly at 1, 3, 10, and 30 mg/kg. In the breast cancer MCF7 PIK3CA^[…] model, a higher dose of 50 mg/kg once weekly and an alternate dose regimen of 30 mg/kg every 10 days were also evaluated.

Mouse plasma exposure = type: in vivo; conditions: fu 0.001-0.004
[2] = Clinical plasma PK, study RMC-5552-001; type: in vivo, human
From the text: The plasma PK of RMC-5552 in subjects was characterized after single- and repeat-dose administration via IV infusion. […] Sparse PK samples were collected on other visit days as indicated in the clinical study protocol, including End of Infusion (EOI) samples on Cycle 1 Day 8 (C1D8), Cycle 2 Day 1 (C2D1), Cycle 3 Day 1 (C3D1), and Cycle 4 Day 1 ([…]) to approximate maximum concentration (Cmax). The plasma PK of RMC-5552 in subjects was characterized after single- and repeat dose administration via intravenous (IV) infusion. […] Sparse PK samples were collected on other visit days as indicated in the clinical study protocol, including EOI samples on C1D8, C2D1, C3D1, and […] to approximate Cmax. […] AUC0-last value was not calculated on C1D8, C2D1, C3D1, or […] due to limited PK time points (pre-dose and EOI).

[3] = system: murine models of mTORC1-activated cancers; conditions: mouse, in vivo
Experimental: as §1

## CO[C@H]1C[C@@H]2CC[C@@H](C)[C@@](O)(O2)C(=O)C(=O)N2CCCC[C@H]2C(=O)O[C@H]([C@H](C)C[C@@H]2CC[C@@H](OC(=O)NCCOCCOCCOCCOCCOCCOCCOCCOCCC(=O)N3CCc4cc(Cn5nc(-c6ccc7oc(N)nc7c6)c6c(N)ncnc65)ccc4C3)[C@H](OC)C2)C[C@@H](O)[C@H](C)/C=C(\C)[C@@H](O)[C@@H](OC)C(=O)[C@H](C)C[C@H](C)/C=C/C=C/C=C/1C [RMC-5552]
[1]; 3 mg/kg IP QW
  tumor regression: 34% regression
[1]; 3 mg/kg QW IP, 4 doses
  median time to regrowth to 300 mm^3 after treatment cessation: 61 days
[1]; 10 mg/kg IP QW
  tumor regression: 61% regression
[1]; 10 mg/kg QW IP, 4 doses
  time to regrowth to 300 mm^3 after treatment cessation (undefined): > 73 days
Mouse plasma exposure; 1 mg/kg
  Unbound AUC0-last, mean mouse exposure: 0.021 to 0.084 µM·h
  Unbound Cmax, mean mouse exposure: 2 to 8 nM
Mouse plasma exposure; 3 mg/kg
  Unbound AUC0-last, mean mouse exposure: 0.053 to 0.21 µM·h
  Unbound Cmax, mean mouse exposure: 3.7 to 14.7 nM
[2]; 1.6 mg
  Mean Accumulation Ratio (AUC0-last on D15/D1): 2.4
[2]; 1.6 mg 1-h IV inf, C1D1
  Cmax: 21.6 nM
[2]; 1.6 mg, C1D1
  Mean AUC0-last: 0.0297 µM·h
  Mean Dose Normalized AUC0-last: 18.6 nM·h/mg
  Mean Unbound AUC0-last: 0.0017 µM·h
  Mean Unbound Cmax: 1.2 nM
[2]; 1.6 mg, C1D15
  Cmax: 35.3 nM
  Mean AUC0-last: 0.0555 µM·h
  Mean Dose Normalized AUC0-last: 34.7 nM·h/mg
  Mean Unbound AUC0-last: 0.0032 µM·h
  Mean Unbound Cmax: 2.0 nM
[2]; 1.6 mg, C2D1 (EOI)
  Cmax: 24.7 nM
  Mean Unbound Cmax: 1.4 nM
[2]; 3 mg
  Mean Accumulation Ratio (AUC0-last on D15/D1): 2.1
[2]; 3 mg 1-h IV inf, C1D1
  Cmax: 32 nM
[2]; 3 mg, C1D1
  Mean AUC0-last: 0.0439 µM·h
  Mean Dose Normalized AUC0-last: 14.6 nM·h/mg
  Mean Unbound AUC0-last: 0.0025 µM·h
  Mean Unbound Cmax: 1.8 nM
[2]; 3 mg, C1D15
  Cmax: 67.5 nM
  Mean AUC0-last: 0.0875 µM·h
  Mean Dose Normalized AUC0-last: 29.2 nM·h/mg
  Mean Unbound AUC0-last: 0.005 µM·h
  Mean Unbound Cmax: 3.8 nM
[2]; 3 mg, C2D1 (EOI)
  Cmax: 74.2 nM
  Mean Unbound Cmax: 4.2 nM
[2]; 6 mg
  Mean Accumulation Ratio (AUC0-last on D15/D1): 1.6
[2]; 6 mg 1-h IV inf, C1D1
  Cmax: 101 nM
[2]; 6 mg, C1D1
  Mean AUC0-last: 0.137 µM·h
  Mean Dose Normalized AUC0-last: 22.1 nM·h/mg
  Mean Unbound AUC0-last: 0.0078 µM·h
  Mean Unbound Cmax: 5.8 nM
  Mean t1/2: 8.1 h
  Unbound AUC0-last (Table 3): 0.0078 µM·h
  Unbound Cmax (Table 3): 5.6 nM
[2]; 6 mg, C1D8 (EOI)
  Cmax: 150 nM
  Mean Unbound Cmax: 8.5 nM
[2]; 6 mg, C1D15
  Cmax: 155 nM
  Mean AUC0-last: 0.219 µM·h
  Mean Dose Normalized AUC0-last: 36.6 nM·h/mg
  Mean Unbound AUC0-last: 0.0125 µM·h
  Mean Unbound Cmax: 8.9 nM
  Mean t1/2: 8.2 h
  Unbound AUC0-last (Table 3): 0.0121 µM·h
  Unbound Cmax (Table 3): 8.7 nM
[2]; 6 mg, C2D1 (EOI)
  Cmax: 159 nM
  Mean Unbound Cmax: 9.1 nM
[2]; 6 mg, C3D1 (EOI)
  Cmax: 187 nM
  Mean Unbound Cmax: 10.7 nM
[2]; 6 mg, C4D1 (EOI)
  Cmax: 220 nM
  Mean Unbound Cmax: 12.5 nM
[2]; 8 mg
  Mean Accumulation Ratio (AUC0-last on D15/D1): 2.6
[2]; 8 mg 1-h IV inf, C1D1
  Cmax: 152 nM
[2]; 8 mg, C1D1
  Mean AUC0-last: 0.219 µM·h
  Mean Dose Normalized AUC0-last: 27.4 nM·h/mg
  Mean Unbound AUC0-last: 0.0125 µM·h
  Mean Unbound Cmax: 8.6 nM
  Mean t1/2: 11.4 h
  Unbound AUC0-last (Table 3): 0.0117 µM·h
  Unbound Cmax (Table 3): 8.6 nM
[2]; 8 mg, C1D8 (EOI)
  Cmax: 242 nM
  Mean Unbound Cmax: 13.8 nM
[2]; 8 mg, C1D15
  Cmax: 340 nM
  Mean AUC0-last: 0.466 µM·h
  Mean Dose Normalized AUC0-last: 58.3 nM·h/mg
  Mean Unbound AUC0-last: 0.0266 µM·h
  Mean Unbound Cmax: 19.4 nM
  Mean t1/2: 10.6 h
  Unbound AUC0-last (Table 3): 0.0266 µM·h
  Unbound Cmax (Table 3): 20.1 nM
[2]; 8 mg, C2D1 (EOI)
  Cmax: 282 nM
  Mean Unbound Cmax: 16.1 nM
[2]; 8 mg, C3D1 (EOI)
  Cmax: 295 nM
  Mean Unbound Cmax: 16.8 nM
[2]; 8 mg, C4D1 (EOI)
  Cmax: 208 nM
  Mean Unbound Cmax: 11.8 nM
[2]; 10 mg 2-h IV inf, C1D1
  Cmax: 115 nM
[2]; 10 mg 2-h inf
  Mean Accumulation Ratio (AUC0-last on D15/D1): 1.7
[2]; 10 mg 2-h inf, C1D1
  Mean AUC0-last: 0.366 µM·h
  Mean Dose Normalized AUC0-last: 36.6 nM·h/mg
  Mean Unbound AUC0-last: 0.0209 µM·h
  Mean Unbound Cmax: 6.6 nM
  Mean t1/2: 13.5 h
[2]; 10 mg 2-h inf, C1D15
  Cmax: 181 nM
  Mean AUC0-last: 0.527 µM·h
  Mean Dose Normalized AUC0-last: 52.7 nM·h/mg
  Mean Unbound AUC0-last: 0.03 µM·h
  Mean Unbound Cmax: 10.3 nM
  Mean t1/2: 4.2 h
[2]; 10 mg 2-h inf, C2D1
  Cmax: 290 nM
  Mean Unbound Cmax: 16.5 nM
[2]; 10 mg, C1D1, N=2
  Unbound AUC0-last (Table 3): 0.0142 µM·h
  Unbound Cmax (Table 3): 11 nM
[2]; 12 mg 1-h IV inf, C1D1
  Cmax: 396 nM
[2]; 12 mg, C1D1
  Mean AUC0-last: 0.49 µM·h
  Mean Dose Normalized AUC0-last: 40.9 nM·h/mg
  Mean Unbound AUC0-last: 0.028 µM·h
  Mean Unbound Cmax: 22.6 nM
  Mean t1/2: 8.3 h
[2]; 12 mg, C1D1, N=2
  Unbound AUC0-last (Table 3): 0.0282 µM·h
  Unbound Cmax (Table 3): 22.6 nM
[2]; weekly repeat dosing, 1.6 to 8 mg
  exposure (Cmax and AUC0-last) on C1D15 relative to C1D1: about 2 fold
[3]
  tolerability of doses and regimens: generally well-tolerated
